pEC50, pKi: −log10 of the molar value.
Experiments:
[1] = biological target: Beta-3 adrenergic receptor (Homo sapiens, UniProt P13945)
Description: Activity at human beta-3 adrenergic receptor expressed in CHO cells by stimulation of cAMP production

[2] = biological target: T1, Beta-2 adrenergic receptor (Homo sapiens, UniProt P07550)
Description: Activity at human beta-2 adrenergic receptor expressed in CHO cells by stimulation of cAMP production

[3] = biological target: T2, Beta-1 adrenergic receptor (Homo sapiens, UniProt P08588)
Description: Activity at human beta-1 adrenergic receptor expressed in CHO cells by stimulation of cAMP production

[4] = Volume of distribution in Beagle dog; assay type: ADME, organism-based, Canis lupus familiaris; conditions: in vivo, read-out: Vss
[5] = Clearance in Beagle dog; assay type: ADME, organism-based, Canis lupus familiaris; conditions: in vivo
[6] = Half life in po dosed Beagle dog; assay type: ADME, organism-based, Canis lupus familiaris; conditions: in vivo
[7] = Bioavailability in Beagle dog; assay type: ADME, organism-based, Canis lupus familiaris; conditions: in vivo
[8] = tested on: Mus musculus; assay: Decrease in plasma glucose level in db/db mouse at 0.03 mg/kg, po after 14 days; assay type: functional
[9] = tested on: Mus musculus; assay: Decrease in plasma glucose level in db/db mouse at 0.3 mg/kg, po after 14 days; assay type: functional
[10] = tested on: Mus musculus; assay: Decrease in plasma glucose level in db/db mouse at 3 mg/kg, po after 14 days; assay type: functional
[11] = tested on: Mus musculus; assay: Decrease in glycosylated hemoglobin in db/db mouse at 0.03 mg/kg, po after 14 days; assay type: functional; parameters: scale not given: the % may be the effect or the level left
[12] = tested on: Mus musculus; assay: Decrease in glycosylated hemoglobin in db/db mouse at 3 mg/kg, po after 14 days; assay type: functional; parameters: scale not given: the % may be the effect or the level left
[13] = tested on: Mus musculus; assay: Decrease in plasma insulin level in db/db mouse at 0.03 mg/kg, po after 14 days; assay type: functional
[14] = tested on: Mus musculus; assay: Decrease in plasma insulin level in db/db mouse at 0.3 mg/kg, po after 14 days; assay type: functional
[15] = tested on: Mus musculus; assay: Decrease in plasma insulin level in db/db mouse at 3 mg/kg, po after 14 days; assay type: functional
[16] = tested on: Mus musculus; assay: Decrease in glycosylated hemoglobin in db/db mouse at 0.3 mg/kg, po after 14 days; assay type: functional; parameters: scale not given: the % may be the effect or the level left
[17] = AUC(0-infinity) in po dosed Beagle dog; assay type: ADME, organism-based, Canis lupus familiaris; parameters: time infinity, route oral; conditions: plasma
[18] = tested on: Mus musculus; assay: Decrease in plasma glucose level in db/db mouse at 0.01 mg/kg, po after 14 days; assay type: functional
[19] = tested on: Mus musculus; assay: Decrease in plasma glucose level in db/db mouse at 0.1 mg/kg, po after 14 days; assay type: functional
[20] = tested on: Mus musculus; assay: Decrease in plasma glucose level in db/db mouse at 1 mg/kg, po after 14 days; assay type: functional
[21] = tested on: Mus musculus; assay: Decrease in glycosylated hemoglobin in db/db mouse at 0.01 mg/kg, po after 14 days; assay type: functional; parameters: scale not given: the % may be the effect or the level left
[22] = tested on: Mus musculus; assay: Decrease in glycosylated hemoglobin in db/db mouse at 0.1 mg/kg, po after 14 days; assay type: functional; parameters: scale not given: the % may be the effect or the level left
[23] = tested on: Mus musculus; assay: Decrease in glycosylated hemoglobin in db/db mouse at 1 mg/kg, po after 14 days; assay type: functional; parameters: scale not given: the % may be the effect or the level left
[24] = tested on: Mus musculus; assay: Decrease in plasma insulin level in db/db mouse at 0.01 mg/kg, po after 14 days; assay type: functional
[25] = tested on: Mus musculus; assay: Decrease in plasma insulin level in db/db mouse at 0.1 mg/kg, po after 14 days; assay type: functional
[26] = tested on: Mus musculus; assay: Decrease in plasma insulin level in db/db mouse at 1 mg/kg, po after 14 days; assay type: functional
[27] = tested on: Mus musculus; assay: Increase of thermogenic activity in CD1 mouse at 3 mg/kg; assay type: functional, organism-based; parameters: dose 3 mg/kg
[28] = tested on: Mus musculus; assay: Increase of thermogenic activity in CD1 mouse at 10 mg/kg; assay type: functional, organism-based; parameters: dose 10 mg/kg
[29] = tested on: Mus musculus; assay: Decrease in plasma glucose level in db/db mouse at 10 mg/kg, po after 14 days; assay type: functional
[30] = tested on: Mus musculus; assay: Decrease in plasma glucose level in db/db mouse at 30 mg/kg, po after 14 days; assay type: functional
[31] = tested on: Mus musculus; assay: Decrease in plasma glucose level in db/db mouse at 100 mg/kg, po after 14 days; assay type: functional
[32] = tested on: Mus musculus; assay: Decrease in glycosylated hemoglobin in db/db mouse at 10 mg/kg, po after 14 days; assay type: functional; parameters: scale not given: the % may be the effect or the level left
[33] = tested on: Mus musculus; assay: Decrease in glycosylated hemoglobin in db/db mouse at 30 mg/kg, po after 14 days; assay type: functional; parameters: scale not given: the % may be the effect or the level left
[34] = tested on: Mus musculus; assay: Decrease in glycosylated hemoglobin in db/db mouse at 100 mg/kg, po after 14 days; assay type: functional; parameters: scale not given: the % may be the effect or the level left
[35] = tested on: Mus musculus; assay: Decrease in plasma insulin level in db/db mouse at 10 mg/kg, po after 14 days; assay type: functional
[36] = tested on: Mus musculus; assay: Decrease in plasma insulin level in db/db mouse at 30 mg/kg, po after 14 days; assay type: functional
[37] = tested on: Mus musculus; assay: Decrease in plasma insulin level in db/db mouse at 100 mg/kg, po after 14 days; assay type: functional
[38] = tested on: Mus musculus; assay: Increase of thermogenic activity in CD1 mouse at 30 mg/kg; assay type: functional, organism-based; parameters: dose 30 mg/kg
[39] = Clearance in Wistar Han rat at 1 mg/kg, iv or 1 mg/kg, po; assay type: ADME, organism-based; conditions: in vivo
[40] = Renal clearance in Wistar Han rat at 1 mg/kg, iv or 1 mg/kg, po; assay type: ADME, organism-based, Kidney; conditions: in vivo, read-out: CL_renal
[41] = Volume of distribution in Wistar Han rat at 1 mg/kg, iv or 1 mg/kg, po; assay type: ADME, organism-based; conditions: in vivo, read-out: Vss
[42] = Half life in Wistar Han rat at 1 mg/kg, iv; assay type: ADME, organism-based; parameters: dose 1 mg/kg, route intravenous; conditions: in vivo
[43] = Half life in Wistar Han rat at 1 mg/kg, po; assay type: ADME, organism-based; parameters: dose 1 mg/kg, route oral; conditions: in vivo
[44] = Bioavailability in Wistar Han rat at 1 mg/kg, po and 1 mg/kg, iv; assay type: ADME, organism-based; conditions: in vivo
[45] = Renal clearance in Beagle dog; assay type: ADME, organism-based, Canis lupus familiaris, Kidney; conditions: in vivo, read-out: CL_renal
[46] = Half life in Beagle dog at 0.2 mg/kg, iv; assay type: ADME, organism-based, Canis lupus familiaris; parameters: dose 0.2 mg/kg, route intravenous; conditions: in vivo
[47] = Clearance in cynomolgus monkey; assay type: ADME, organism-based, Macaca fascicularis; conditions: in vivo
[48] = Volume of distribution in cynomolgus monkey; assay type: ADME, organism-based, Macaca fascicularis; conditions: in vivo, read-out: Vss
[49] = Half life in iv dosed cynomolgus monkey; assay type: ADME, organism-based, Macaca fascicularis; conditions: in vivo
[50] = Half life in po dosed cynomolgus monkey; assay type: ADME, organism-based, Macaca fascicularis; conditions: in vivo
[51] = biological target: T1, Beta-2 adrenergic receptor; assay: Displacement of [125I]cyanopindolol from human cloned beta-2 adrenergic receptor expressed in Sf9 cells
[52] = biological target: Beta-2 adrenergic receptor and beta-3 adrenergic receptor (Homo sapiens, UniProt P07550+P13945); assay: Ratio of pEC50 for human beta-3 adrenergic receptor to pKi for human beta2 adrenergic receptor; assay type: functional
[53] = biological target: T2, Beta-1 adrenergic receptor; assay: Displacement of [125I]cyanopindolol from human cloned beta-1 adrenergic receptor expressed in Sf9 cells

T1 sequence (P07550 whole entry): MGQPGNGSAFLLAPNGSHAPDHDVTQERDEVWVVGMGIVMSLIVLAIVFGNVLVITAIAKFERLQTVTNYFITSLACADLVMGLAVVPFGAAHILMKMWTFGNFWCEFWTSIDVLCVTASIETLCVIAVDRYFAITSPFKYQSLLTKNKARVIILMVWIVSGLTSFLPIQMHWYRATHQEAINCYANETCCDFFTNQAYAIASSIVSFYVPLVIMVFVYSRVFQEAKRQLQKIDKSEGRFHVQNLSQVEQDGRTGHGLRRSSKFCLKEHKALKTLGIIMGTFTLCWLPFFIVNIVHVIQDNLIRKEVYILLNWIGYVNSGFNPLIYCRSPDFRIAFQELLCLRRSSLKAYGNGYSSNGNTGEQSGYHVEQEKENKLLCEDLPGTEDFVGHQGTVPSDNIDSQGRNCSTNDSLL
Beta-3 adrenergic receptor, sequence (P13945 whole entry): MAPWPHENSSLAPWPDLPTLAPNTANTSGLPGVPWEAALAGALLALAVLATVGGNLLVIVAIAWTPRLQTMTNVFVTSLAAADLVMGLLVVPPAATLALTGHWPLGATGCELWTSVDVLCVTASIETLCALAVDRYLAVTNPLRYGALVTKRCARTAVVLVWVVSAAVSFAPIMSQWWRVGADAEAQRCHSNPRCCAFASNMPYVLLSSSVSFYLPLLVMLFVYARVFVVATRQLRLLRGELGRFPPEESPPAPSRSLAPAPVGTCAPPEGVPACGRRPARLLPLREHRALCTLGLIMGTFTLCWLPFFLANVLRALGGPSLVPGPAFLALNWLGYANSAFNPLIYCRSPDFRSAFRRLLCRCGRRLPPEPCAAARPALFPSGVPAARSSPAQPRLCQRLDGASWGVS
T2 sequence (P08588 whole entry): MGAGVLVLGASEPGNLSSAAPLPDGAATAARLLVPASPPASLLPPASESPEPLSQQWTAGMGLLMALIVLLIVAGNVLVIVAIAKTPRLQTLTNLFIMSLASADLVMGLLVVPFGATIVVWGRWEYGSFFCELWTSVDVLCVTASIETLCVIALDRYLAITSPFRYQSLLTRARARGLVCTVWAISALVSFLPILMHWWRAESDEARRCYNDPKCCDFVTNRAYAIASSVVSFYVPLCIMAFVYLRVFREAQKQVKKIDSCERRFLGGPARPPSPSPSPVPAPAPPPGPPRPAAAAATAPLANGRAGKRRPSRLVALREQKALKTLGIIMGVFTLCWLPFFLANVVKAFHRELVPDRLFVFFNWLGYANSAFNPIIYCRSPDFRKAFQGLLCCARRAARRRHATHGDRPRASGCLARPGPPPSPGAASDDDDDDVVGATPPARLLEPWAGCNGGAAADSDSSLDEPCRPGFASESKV

COC(=O)c1cccc(-c2cccc(NCCNC[C@H](O)c3cccc(Cl)c3)c2)c1
pEC50 [1]: 6.80 | pEC50 [2]: 6.30 | pEC50 [3]: 5.90

C[C@H](CNc1cccc(-c2ncccc2C(=O)O)c1)NC[C@H](O)c1cccc(Cl)c1
pEC50 [1]: 7.50 | pEC50 [2]: 5.80 | pEC50 [3]: 6.10

C[C@H](CNc1cccc(-c2ccc(C(=O)O)cc2C(=O)O)c1)NC[C@H](O)c1cccc(Cl)c1
Vd [4]: 0.99 L/kg | clearance [5]: 9.3 mL/min/kg | pEC50 [1]: 9.70 | pEC50 [2]: < 5.00 | pEC50 [3]: 5.60

O=C(O)c1cccc(-c2cccc(NCCNC[C@H](O)c3cccc(Cl)c3)c2)n1
pEC50 [1]: 7.40 | pEC50 [2]: 5.00 | pEC50 [3]: 5.30

C[C@H](CNc1cccc(-c2ccccc2C(=O)O)c1)NC[C@H](O)c1cccc(Cl)c1
Vd [4]: 0.37 L/kg | half-life [6]: 2.4 h | bioavailability [7]: 40% | plasma glucose [8]: 417 mg/dL | plasma glucose [9]: 238 mg/dL | plasma glucose [10]: 222 mg/dL | Activity [11]: 7.2% | Activity [12]: 5.4% | Activity [13]: 13.7 ng/mL | Activity [14]: 6.7 ng/mL | Activity [15]: 3 ng/mL | Activity [16]: 5.7% | AUC(0-inf) [17]: 310 ng·h/mL | clearance [5]: 11.3 mL/min/kg | pEC50 [1]: 9.60 | pEC50 [2]: 6.00 | pEC50 [3]: 6.20

C[C@H](CNc1cccc(-c2ccc(C(=O)O)cc2)c1)NC[C@H](O)c1cccc(Cl)c1
pEC50 [1]: 7.50 | pEC50 [2]: 5.80 | pEC50 [3]: 6.10

O=C(O)c1ccncc1-c1cccc(NCCNC[C@H](O)c2cccc(Cl)c2)c1
Vd [4]: 0.33 L/kg | half-life [6]: 1.7 h | bioavailability [7]: 27% | plasma glucose [18]: 351 mg/dL | plasma glucose [19]: 181 mg/dL | plasma glucose [20]: 180 mg/dL | Activity [21]: 5.6% | Activity [22]: 5% | Activity [23]: 4.8% | Activity [24]: 11.4 ng/mL | Activity [25]: 2.8 ng/mL | Activity [26]: 1.4 ng/mL | AUC(0-inf) [17]: 161 ng·h/mL | clearance [5]: 5.64 mL/min/kg | pEC50 [1]: 10.00 | pEC50 [2]: < 5.00 | pEC50 [3]: 5.00

Cc1ccc(C(=O)O)cc1-c1cccc(NCCNC[C@H](O)c2cccc(Cl)c2)c1
Vd [4]: 1.37 L/kg | half-life [6]: 2.4 h | bioavailability [7]: 37% | AUC(0-inf) [17]: 173 ng·h/mL | clearance [5]: 7.1 mL/min/kg | pEC50 [1]: 8.80 | pEC50 [2]: 6.20 | pEC50 [3]: 6.10

C[C@H](CNc1cccc(-c2cccc(C(=O)O)c2)c1)NC[C@H](O)c1cccc(Cl)c1
Vd [4]: 0.45 L/kg | half-life [6]: 2.5 h | bioavailability [7]: 28% | AUC(0-inf) [17]: 135 ng·h/mL | clearance [5]: 7.3 mL/min/kg | pEC50 [1]: 10.00 | pEC50 [2]: 7.30 | pEC50 [3]: 8.20

O=C(O)c1cncc(-c2cccc(NCCNC[C@H](O)c3cccc(Cl)c3)c2)c1
pEC50 [1]: 7.20 | pEC50 [2]: 5.40 | pEC50 [3]: 5.50

O=C(O)c1cccc(-c2cccc(NCCNC[C@H](O)c3cccc(Cl)c3)c2)c1 [SOLABEGRON]
Activity [27]: Dose-dependent effect | Activity [28]: Dose-dependent effect | Vd [4]: 0.34 L/kg | half-life [6]: 5 h | bioavailability [7]: 43% | plasma glucose [29]: 384 mg/dL | plasma glucose [30]: 207 mg/dL | plasma glucose [31]: 185 mg/dL | Activity [32]: 7.3% | Activity [33]: 7.6% | Activity [34]: 7.06% | Activity [35]: 6.3 ng/mL | Activity [36]: 4.4 ng/mL | Activity [37]: 0.9 ng/mL | Activity [38]: Dose-dependent effect | AUC(0-inf) [17]: 595 ng·h/mL | clearance [5]: 2.4 mL/min/kg | clearance [39]: 18.1 mL/min/kg | CL renal [40]: 0.16 mL/min/kg | Vd [41]: 1.3 L/kg | half-life [42]: 2.1 h | half-life [43]: 3 h | bioavailability [44]: 30% | CL renal [45]: 0.014 mL/min/kg | half-life [46]: 3.3 h | clearance [47]: 5.5 mL/min/kg | Vd [48]: 0.556 L/kg | half-life [49]: 4.5 h | half-life [50]: 5.2 h | pKi [51]: 5.80 | Ratio [52]: 398 | pKi [53]: 6.40 | pEC50 [1]: 8.40 | pEC50 [2]: 5.90 | pEC50 [3]: 5.40

From ChEMBL document CHEMBL1147662, “Biarylaniline phenethanolamines as potent and selective beta3 adrenergic receptor agonists” (J Med Chem, 2006)
